{"source": "patent US7183075B2", "about": "“Purified and isolated potassium-chloride cotransporter nucleic acids and polypeptides and therapeutic and screening methods using same” (Vanderbilt University, priority 2000, dated 2007)", "key": {"[1]": {"test_system": "KCC2^+/− heterozygous and wild type mice", "experiment": "PTZ seizure induction in wild type and KCC2+/- mice", "type": "in vivo, mouse", "conditions": "daily 60 mg/kg PTZ", "method": "A reduced threshold for induction of seizure activity was also observed in KCC2^+/− heterozygous mice. Seizures were induced in wild type and litter-matched KCC2^+/− mice by daily injections of 60 mg/kg pentylenetetrazole (PTZ), a blocker of the GABAA receptor. Animal behavior was observed during a one-hour interval following PTZ injection, and the severity of seizure induction was scored according to the following indicators: score=0, absence of seizure acitivity; score=1, ear and facial twitching; score=2, myoclonic body jerks; score=3, clonic forelimb convulsions […]; score=5, death. Mice assigned a score of 3, 4, or 5 were removed from the group. FIG. 34 summarizes the number of mice assigned a score of 1 or 2 as a function of time. A significant difference between wild type and KCC2^+/− heterozygous mice was observed, corresponding to an approximately 2-fold increase in the susceptibility of KCC2^+/− heterozygous mice to seizure activity."}, "mKCC4": {"target": "T1, mKCC4 (Mus musculus, UniProt Q9WVL3)", "T1 construct": "a full-length mKCC4 cDNA was used as a standard in the Xenopus expression vector pGEMHE; expressed in transfected cells; host or cells: Xenopus laevis oocytes injected with cRNA (pGEMHE, T7 transcript)", "T1 sequence (Q9WVL3 1-1083 L71X/L155X/L467X/L586X/L639X/L1023X)": "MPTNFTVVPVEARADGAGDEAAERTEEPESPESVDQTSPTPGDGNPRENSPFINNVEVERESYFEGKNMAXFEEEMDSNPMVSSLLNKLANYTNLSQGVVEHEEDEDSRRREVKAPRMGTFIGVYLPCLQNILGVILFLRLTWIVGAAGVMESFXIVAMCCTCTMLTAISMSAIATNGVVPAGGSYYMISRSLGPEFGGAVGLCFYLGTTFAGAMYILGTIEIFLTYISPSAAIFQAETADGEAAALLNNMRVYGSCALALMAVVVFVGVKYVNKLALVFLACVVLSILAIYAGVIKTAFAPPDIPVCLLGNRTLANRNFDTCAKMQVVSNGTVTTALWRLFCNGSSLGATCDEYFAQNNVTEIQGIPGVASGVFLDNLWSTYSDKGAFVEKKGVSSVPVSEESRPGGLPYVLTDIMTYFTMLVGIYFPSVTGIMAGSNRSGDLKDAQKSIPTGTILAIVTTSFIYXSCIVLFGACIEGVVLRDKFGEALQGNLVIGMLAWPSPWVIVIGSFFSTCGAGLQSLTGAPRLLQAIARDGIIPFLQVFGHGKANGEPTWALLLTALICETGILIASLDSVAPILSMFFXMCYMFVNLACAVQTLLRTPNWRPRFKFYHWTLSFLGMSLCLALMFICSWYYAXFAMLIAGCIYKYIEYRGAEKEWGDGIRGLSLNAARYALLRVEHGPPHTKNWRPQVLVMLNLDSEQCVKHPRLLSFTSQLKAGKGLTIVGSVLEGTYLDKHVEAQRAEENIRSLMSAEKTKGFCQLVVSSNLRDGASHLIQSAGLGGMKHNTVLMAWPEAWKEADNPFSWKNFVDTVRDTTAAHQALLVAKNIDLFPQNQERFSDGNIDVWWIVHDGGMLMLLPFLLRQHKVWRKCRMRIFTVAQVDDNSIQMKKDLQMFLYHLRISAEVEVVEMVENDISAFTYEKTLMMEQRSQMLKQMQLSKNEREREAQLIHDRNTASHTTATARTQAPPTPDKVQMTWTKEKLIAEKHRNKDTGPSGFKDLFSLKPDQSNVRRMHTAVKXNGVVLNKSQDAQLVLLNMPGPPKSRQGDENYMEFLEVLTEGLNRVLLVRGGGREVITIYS", "experiment": "86Rb+ uptake (K+-Cl- cotransport) in Xenopus oocytes injected with mKCC4 cRNA", "type": "cell-based", "conditions": "10 mM potassium salt of anion substitute vs 10 mM KCl reference; hypotonic", "method": "Oocytes were surgically collected from anesthetized female Xenopus adults under 0.17% tricaine and incubated for 1 hour with vigorous shaking in frog Ringer ND96 (96 mM sodium chloride, 2 mM potassium chloride, 1.8 mM calcium chloride, 1.0 mM magnesium chloride, and 5 mM Hepes/Tris, pH 7.4) in the presence of 2 mg/ml collagenase B. Oocytes were then washed four times in ND96, manually defolliculated, and incubated overnight in ND96 at 18° C. On the next day, defolliculated stage V–VI oocytes were injected with 50 nl of water or a solution containing cRNA at a concentration of 0.25–0.5 μg/μl (25 ng/oocyte). Oocytes were incubated at 17–18° C. in ND96 (96 mM sodium chloride, 2 mM potassium chloride, 1.8 mM calcium chloride, 1.0 mM magnesium chloride, and 5 mM Hepes/Tris, pH 7.4), supplemented with 2.5 mM sodium pyruvate and 5 mg/100 ml gentamicin, for 3–4 days. The incubation medium was changed every 24 hours. On the day of the experiment, oocytes were switched to Cl^−-free ND96 (96 mM Na^+ Na^+ isethionate, 2 mM K^+ gluconate, 6 mM Ca^2+ gluconate, 1 mM Mg^2+ gluconate, 5 mM Hepes, 2.5 mM sodium pyruvate, 5 mg/100 ml gentamicin, pH 7.4) for 2 hours prior to the uptake assay.\nFor functional expression and in vitro translation, a full-length mKCC4 cDNA was used as a standard in the Xenopus expression vector pGEMHE (Liman et al. (1992) Neuron 9:861–871). The resulting construct contains nucleotides 55–3812 of mKCC4 (SEQ ID NO:13). For functional comparison with mKCC4, a full-length rabbit KCC1 cDNA was subcloned into pGEMHE. […] […] Transcription product integrity was confirmed on agarose gels, and concentration was determined by absorbance reading at 260 nm (DU 640 available from Beckman of Fullerton, Calif.).\nK^+—Cl^− cotransport was assessed by measuring tracer ^86Rb^+ uptake (NEN® Life Science Products of Boston, Mass.) in experimental groups of at least 15 oocytes. […] All uptake solutions also contained 1.8 mM CaCl2, 1 mM MgCl2, 5 mM Hepes, pH 7.4, and were supplemented with 1 mM ouabain and […] ^86Rb^+. Isotonic conditions were generated by supplementing the same solutions with 3.5 g/100 ml sucrose to reach isosmolar conditions for oocytes (˜210 mOsm/kg). Ouabain was added to prevent ^86Rb^+ uptake via the Na^+—K^+-ATPase. The absence of extracellular Na^+ and the hypotonicity of the uptake medium prevented ^86Rb^+ uptake via the endogenous Na^+—K^+-2Cl^− cotransporter that is present in oocytes (Gamba et al. (1994) J Biol Chem 269:17713–17722).\nAll uptake assays were performed at 32° C. At the end of the uptake period, oocytes were washed five times in ice-cold uptake solution without isotope to remove extracellular fluid tracer. Oocytes were dissolved in 10% SDS, and tracer activity was determined for each oocyte by β-scintillation counting.\nTo determine the ion transport kinetics of KCC4 and KCC1, ^86Rb^+ uptake experiments were performed in variable concentrations of K^+ and Cl^−. […]"}, "[2]": {"test_system": "human red cell K^+—Cl^− cotransport", "conditions": "ML-7; physiological osmolality; cited from earlier work"}, "hKCC3a": {"target": "T2, hKCC3a (Homo sapiens, UniProt Q9UHW9, L346X/L35X/L789X)", "T2 construct": "A full-length hKCC3a construct has also been generated for functional expression; expressed in transfected cells; host or cells: Xenopus laevis oocytes injected with cRNA", "T2 sequence (Q9UHW9 1-1150 L35X/L346X/L789X)": "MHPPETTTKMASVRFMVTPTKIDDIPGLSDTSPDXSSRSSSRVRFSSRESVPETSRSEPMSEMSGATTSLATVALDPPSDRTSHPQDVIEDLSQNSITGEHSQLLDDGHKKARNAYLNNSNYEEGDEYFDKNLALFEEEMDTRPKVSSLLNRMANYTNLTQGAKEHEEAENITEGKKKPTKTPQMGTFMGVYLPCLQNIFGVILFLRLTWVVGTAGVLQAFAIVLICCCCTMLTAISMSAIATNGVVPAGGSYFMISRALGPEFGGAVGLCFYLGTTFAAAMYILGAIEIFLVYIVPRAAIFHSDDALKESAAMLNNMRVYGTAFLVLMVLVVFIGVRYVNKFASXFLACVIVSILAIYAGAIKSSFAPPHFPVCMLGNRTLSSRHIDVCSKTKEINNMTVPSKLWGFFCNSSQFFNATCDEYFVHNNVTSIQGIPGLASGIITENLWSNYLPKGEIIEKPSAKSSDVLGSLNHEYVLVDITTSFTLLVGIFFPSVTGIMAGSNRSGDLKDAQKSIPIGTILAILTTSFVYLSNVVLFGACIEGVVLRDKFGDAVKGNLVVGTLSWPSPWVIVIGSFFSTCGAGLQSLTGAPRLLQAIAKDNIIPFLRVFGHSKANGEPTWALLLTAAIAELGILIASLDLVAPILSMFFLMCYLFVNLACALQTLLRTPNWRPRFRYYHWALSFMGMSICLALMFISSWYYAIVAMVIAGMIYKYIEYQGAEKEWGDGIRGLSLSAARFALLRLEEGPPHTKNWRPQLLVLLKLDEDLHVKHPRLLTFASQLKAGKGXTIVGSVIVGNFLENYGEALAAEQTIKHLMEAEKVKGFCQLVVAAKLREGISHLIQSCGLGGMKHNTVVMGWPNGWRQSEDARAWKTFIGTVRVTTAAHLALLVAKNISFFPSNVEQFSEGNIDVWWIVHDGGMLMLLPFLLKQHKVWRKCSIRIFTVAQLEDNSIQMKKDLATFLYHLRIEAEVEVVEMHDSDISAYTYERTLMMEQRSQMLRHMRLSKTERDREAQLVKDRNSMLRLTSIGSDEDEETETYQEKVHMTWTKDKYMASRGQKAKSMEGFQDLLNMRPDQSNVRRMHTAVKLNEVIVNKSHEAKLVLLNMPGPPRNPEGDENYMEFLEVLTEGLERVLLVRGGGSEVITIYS", "experiment": "86Rb+ uptake (K+-Cl- cotransport) in Xenopus oocytes injected with hKCC3a cRNA", "type": "cell-based"}}}
{"compound": "C1CCc2nnnn2CC1", "note": "[PTZ, pentylenetetrazole]", "values": [{"measurement": "percentage of deaths in response to PTZ injection", "setting": "[1]; KCC2+/− heterozygous mice", "value": "Approximately 35%"}, {"measurement": "percentage of deaths in response to PTZ injection", "setting": "[1]; wild type mice", "value": "< 5", "unit": "%"}]}
{"compound": "[I-].[K+]", "note": "[KI]", "values": [{"measurement": "86Rb+ influx in the presence of other anions, percentage of KCC4 function", "setting": "mKCC4", "value": "17±3.8", "unit": "%"}]}
{"compound": "O=C([O-])[C@H](O)[C@@H](O)[C@H](O)[C@H](O)CO.[K+]", "note": "[potassium gluconate]", "values": [{"measurement": "86Rb+ influx in the presence of other anions, percentage of KCC4 function", "setting": "mKCC4", "value": "did not support transport"}]}
{"compound": "O=P([O-])(O)O.[K+]", "note": "[KH2PO4]", "values": [{"measurement": "86Rb+ influx in the presence of other anions, percentage of KCC4 function", "setting": "mKCC4", "value": "22±5.9", "unit": "%"}]}
{"compound": "[Br-].[K+]", "note": "[KBr]", "values": [{"measurement": "86Rb+ influx in the presence of other anions, percentage of KCC4 function", "setting": "mKCC4", "value": "58±9", "unit": "%"}]}
{"compound": "O=S(=O)(c1cccc2c(I)cccc12)N1CCCNCC1", "note": "[ML-7]", "values": [{"measurement": "effect on human red cell K+-Cl- cotransport", "setting": "[2]", "value": "modest activation"}, {"measurement": "K+-Cl- cotransport (86Rb+ uptake) by KCC3a in the presence of ML-7", "setting": "hKCC3a; 100 μM ML-7, 160 mOsm/kg", "value": "1698±298", "unit": "pmol/oocyte/hour"}, {"measurement": "effect on hKCC3a K+-Cl- cotransport", "setting": "hKCC3a; ML-7, 180 mOsm/kg", "value": "modest activation"}, {"measurement": "effect on K+-Cl- cotransport", "setting": "hKCC3a; ML-7, isotonic conditions", "value": "no effect"}]}
{"compound": "N#C[S-].[K+]", "note": "[KSCN]", "values": [{"measurement": "86Rb+ influx in the presence of other anions, percentage of KCC4 function", "setting": "mKCC4", "value": "did not support transport"}]}
